Test results published in patent publication US11452730B2, “Applications of desogestrel in the preparation of breast cancer ER-negative Ah receptor-positive products” (SHANGHAI JIAO TONG UNIVERSITY, priority 2015, dated 2022).
Read-outs that look alike come from different tables or passages of the source.

Experiments:
Format in all cases: cell-based
[1] = test system: LoVo colon cancer cells; assay: CellTiter-Glo luminescent cell viability assay, LoVo 96-well drug screening plate; conditions: Homo sapiens, 72 hours
Protocol: (§1) In example 1, CELLTITER-GLO was used to test desogestrel for colon cancer RKO cells, LoVo cells, and MDA-MB-468 ductal breast cancer cells were handled as described above, and RKO 96-well cell culture plates, 96-well LoVo cell culture plates, and 96-well MDA-MB-468 cell culture plates were obtained, respectively. The complete medium for LoVo cells was MEM (a live product), Cat #10370021, with a cells/well density of 8000. a) DMSO was used to dilute the analyte desogestrel to 20 mM for use. b) 79 μL of the 20 mM analyte prepared in step a) was added to the first well in the first row of the dilution plate, and then 54 μL of DMSO solution was added to the second through ninth wells of the first row. 25 μL of solution was aspirated from the first to the second well, and after mixing well 25 μL of solution was aspirated from the second to the third well, and this was repeated until the 9th well in order to ensure that 3.16 dilution of the medication would be carried out one-by-one. b) 95 μl of cell-specific complete medium was added to the working plate, each medication to 9 wells. […] The final concentrations (μM) of the analyte drug in wells 2-10 in FIG. 1 are, in order: 100, 31.64557, 10.01442, 3.16912, 1.002886, 0.317369, 0.100433, 0.031783, 0.010058; a) Before testing, the RKO 96-well drug screening plate and the LoVo 96-well drug screen plate described in 3 above were stabilized to room temperature for 20-30 minutes. c) 100 μl of CellTiter-Glo reagent (prepared as described in 1 above) was added to all drug screening plates and mixed evenly. d) It was thoroughly oscillated in a 96-well microplate oscillator for 2 minutes to allow the cells to undergo full lysis. e) It was stored away from light at room temperature for 15 minutes before carrying out luminescent signal detection to ensure signal stability. f) An EnSpire multi-function plate reader was used at 570 nm to read the luminescent signals.

[2] = test system: BT-474 ductal breast cancer cells; assay: CellTiter-Glo luminescent cell viability assay, BT-474 cells (same method); conditions: Homo sapiens, Table 1
Description: Ductal breast cancer cells BT-474, complete medium basis of RPMI-1640 (a live product), Cat #A1049101, with a cells/well density of 4,000. The same method was used to test desogestrel's action on the IC50 value of BT-474 ductal breast cancer cells; results are shown in Table 1.

[3] = test system: RKO colon cancer cells; assay: CellTiter-Glo luminescent cell viability assay, RKO 96-well drug screening plate; conditions: 72 hours
Protocol: as §1, with “for RKO” for “for LoVo”, “was DMEM” for “was MEM”, “Cat #11995081,” for “Cat #10370021,”, “of 12000.” for “of 8000.”

[4] = test system: ER-negative Ah receptor-positive MDA-MB-468 breast cancer cells; assay: CellTiter-Glo luminescent cell viability assay, MDA-MB-468 96-well drug screening plate; conditions: Homo sapiens, 72 hours
Protocol: as §1, with “RKO” for “In example 1, CELLTITER-GLO was used to test desogestrel for colon cancer RKO”, “for ER-negative Ah receptor-positive MDA-MB-468 breast cancer” for “for LoVo”, “was Leibovitz's L-15” for “was MEM”, “Cat #11415064,” for “Cat #10370021,”, “of 12000.” for “of 8000.”, “0.010058;” for “0.010058; a) Before testing, the RKO 96-well drug screening plate and the LoVo 96-well drug screen plate described in 3 above were stabilized to room temperature for 20-30 minutes.”

EC50 ([1]; FIG. 3, colon cancer, LoVo 96-well drug screening plate): 26.3 µM
IC50 ([1]; FIG. 3, colon cancer, LoVo 96-well drug screening plate, read-out: IC50): 26.2 µM
IC50 ([1]; LoVo cells, Table 1, read-out: IC50 value): 32.1 µM
IC50 [2]: ≥ 100 µM
EC50 ([3]; FIG. 2, colon cancer, RKO 96-well drug screening plate): 136 µM
IC50 ([3]; FIG. 2, colon cancer, RKO 96-well drug screening plate, read-out: IC50): 32.1 µM
IC50 ([3]; Homo sapiens, RKO cells, Table 1, read-out: IC50 value): 26.2 µM
EC50 ([4]; FIG. 4, ER-negative Ah receptor-positive breast cancer, MDA-MB-468 plate): 11.3 µM
IC50 ([4]; FIG. 4, ER-negative Ah receptor-positive breast cancer, MDA-MB-468 plate, read-out: IC50): 12.5 µM
IC50 ([4]; MDA-MB-468 cells, Table 1, read-out: IC50 value): 12.5 µM
SMILES: C#C[C@]1(O)CC[C@H]2[C@@H]3CCC4=CCCC[C@@H]4[C@H]3C(=C)C[C@@]21CC [desogestrel]
